Consider 22 molecules from patent US11414454B2, “Compositions, methods, and systems for affinity-based protein identification and purification” (Auctus Biologies, Inc., priority 2017, dated 2022).

Residues, ends and D or L forms follow the SMILES beside them. No end group written: not given here.

The Kd is the free concentration of one partner at which half of the binding sites on the other are occupied at equilibrium, for simple one-to-one binding. As a reminder, the koff is the rate constant with which the complex falls apart. Low values mean a long-lived complex, high ones a short-lived complex.

For test [1], the target named is RPtag (large). Nature of the test: Fluorescence anisotropy Kd of rhodamine labeled RPtag (small) peptides for RPtag (large). Format: binding, Thermoanaerobacter tengcongensis. The following applies: for Kd: N-terminal rhodamine tagged peptide, unlabeled RPtag (large), 50 mM Tris pH 8.0, 0.005% Tween 20, mean ± SE; for effect of alanine mutation on binding affinity to RPtag(large): alanine scanning versus native. As for the experimental part:
50 nM of RP-Tag Small (see Sequence 3, below) with an N-terminal Rhodamine B label was incubated with increasing concentrations of either RP-Tag Large (see Sequence 2) or Bovine Serum Albumin (BSA) in 50 mM Tris pH 8.0, 150 mM NaCl, 10 mM 2-mercaptoethanol, and 0.005% Tween 20 for 5 min in black 96-well plates at room temperature.
Anisotropy was then measured, and a Kd calculated by fitting the data to the equation f=y0+(ymax−y0)*(Ptot+x+Kd−sqrt((Ptot+x+Kd)^2−4*Ptot*x))/(2*Ptot), where y0 is the baseline anisotropy, ymax is the maximum anisotropy, Ptot is the fixed concentration of labeled peptide used, x is the variable concentration of protein used, and Kd is the measured Kd.
The indicated concentrations of RPtag (large) and an anti-His tag antibody (4E3D10H2/E3 purchased from ThermoFisher Scientific) were incubated with 1 nM rhodamine labeled native RPtag (small) peptide and 6×His peptide (Rhodamine-GHHHHHH), respectively, and fluorescence anisotropy measured. BSA incubated with native rhodamine labeled RPtag(small) is included as a control for non-specific binding. Kd's were calculated according to the equation f=y0+(ymax−y0)*(Ptot+x+Kd−sqrt((Ptot+x+Kd)^2−4*Ptot*x))/(2*Ptot), where y0 is the baseline anisotropy, ymax is the maximum anisotropy, Ptot is the fixed concentration of labeled peptide used, x is the variable concentration of protein used, and Kd is the measured Kd. We measured a Kd of 0.2±0.1 nM for RPtag(large) binding RPtag(small), and a Kd of 6±1 nM for the antibody/6×His tag pair.
Regarding the studies shown in FIG. 14, increasing concentrations of unlabeled RPtag large with the indicated mutations (native, f137d, and f137e) were incubated for 1 h with 1 nM rhodamine labeled RPtag small peptide and the fluorescence anisotropy was measured. Resultant curves were fit with the equation f=y0+(ymax−y0)*(Ptot+x+Kd−sqrt((Ptot+x+Kd)^2−4*Ptot*x))/(2*Ptot), where y0 is the baseline anisotropy, ymax is the maximum anisotropy, Ptot is the fixed concentration of labeled peptide used, x is the variable concentration of protein used, and Kd is the measured Kd. Data are presented here as Ka=1/Kd. Log transformed Ka's were then compared by one-way ANOVA with Holm-Sidak post hoc correction. ***p<0.001, **p<0.01, *p<0.05. data are mean±SEM (n=3-4). Buffer was 50 mM Tris pH 8.0, 0.005% tween20. Proteins were expressed and purified by single step NiNTA chromatography as before. Peptides were synthesized solid-state and handled as previous.
(Fluorescence polarisation rises when a labelled molecule tumbles more slowly, as on binding a larger partner.)

For test [2], the system named is RPtag (large). The test can be described thus: Association/dissociation kinetics of RPtag (small) peptides with RPtag (large) by fluorescence anisotropy. Format: binding, Thermoanaerobacter tengcongensis. The following applies: for koff: LS dissociation, unlabeled competitor peptide; for kf: S to S* forward rate constant; for kr: S* to S reverse rate constant, calculated from Keq and kf; for kon (M^−1 min^−1 ) (×10^7): S*-LS transition, calculated from measured koff and Kd. As for the experimental part:
Panel a depicts representative association rate kinetics traces varying native RPtag small. Rhodamine labeled RPtag small at the indicated concentration was incubated with unlabeled RPtag large and the association measured by fluorescence anisotropy. L-S complex concentration was calculated by the equation (r−rmin)/(rmax−rmin)*[S] where r is the measured anisotropy, rmin is the anisotropy in the absence of any RPtag large, rmax is the anisotropy measured in the presence of at saturating RPtag large, and [S] is the total concentration of RPtag small used in the experiment. […] Dashed cyan lines are simulations of the mechanism shown in f using the rate constants detailed herein. The concentrations in the simulations were multiplied by a correction factor of 0.925, which is well within the 90% purity specification of the purchased peptide.
LS complex was performed by incubating 1000 nM RPtag large with the indicated concentrations of rhodamine labeled RPtag small. At the start of the experiment, 0.1 mM unlabeled native RPtag small was added and fluorescence anisotropy monitored. Data processing was done as in panel a, except the red fits were to the single exponential decay equation y=y0+A*exp(−b*t). As expected, the initial dissociation rates were linear with respect to the LS complex.
Fitting to a line yields a rate constant (koff)=0.0091 min^−1 (FIG. 9 panel e). In good agreement, when the kinetics are fit with a first order rate law, a rate constant of 0.012±0.002 min^−1 (n=15) was observed. […] Panel e is a graph of the initial rates of the traces represented in d. Slope of the fit line is 0.0091 min^−1. Data are mean±SE (n=3).
The library of mutant RPtag(small) peptides, described above, was next analyzed to measure off rates (koff). The on rate was also calculated from measured koff and Kd (S*-LS transition), except instead of using unlabeled native peptide as the competitor, we used unlabeled Nd2,P5A,E18A (the tightest binding RPtag(small) peptide identified). […] However, there were notable exceptions. […] This indicates, without wishing to be limited, that P5 may constrain the structure of the peptide. The increased flexibility imparted to the peptide by the P5A mutation may decrease the energy barrier required for binding/unbinding.

As to KENVQ [Nd16], the dissociation constant Kd in test [1] is > 100000 nM.
Regarding GEKIPNFIPAELK [Cd8], the dissociation constant (Kd) in test [1] is > 100000 nM.
For GEKIPNFIPAELKLITKENV [Cd1], in test [2], the off-rate (koff) worked out at 0.000102 ± 1e-05 s⁻¹, the “kf” value was 0.10 ± 0.01 min⁻¹, the “kr” value was 0.042 ± 0.007 min⁻¹ and the “kon (M^−1 min^−1 ) (×10^7)” value is recorded as 1.1 ± 0.1 ×10^7 M^−1 min^−1. In test [1], the Kd is 0.55 ± 0.04 nM.
On to GEKIPNFIPAEL [Cd9], for which the Kd in test [1] was > 100000 nM.
GEKIP [Cd16]: the Kd in test [1] was > 100000 nM.
For “GEKIPNFIPAELKLITKENVQ [q21a, RPtag(small) with Q21 changed to alanine]”, in test [2], the “koff” value worked out at 5.67e-05 ± 5e-06 s⁻¹ and the “kf” value stood at 0.087 ± 0.005 min⁻¹. Besides, the “effect of alanine mutation on binding affinity to RPtag(large)” value (“effect of alanine mutation” for short) in test [1] is on record as “significantly increased binding affinity”.
Turning to GEKIPNF [Cd14], in test [1], the Kd was > 100000 nM.
As for “GEKIPNFIPAELKLITKENVQ [n19a, RPtag(small) with N19 changed to alanine]”, in test [2], the off-rate constant (koff) was found to be 0.000617 ± 5e-05 s⁻¹, the “kf” value amounted to 0.089 ± 0.003 min⁻¹, the “kr” value is 0.057 ± 0.008 min⁻¹ and the “kon (M^−1 min^−1 ) (×10^7)” value is reported as 14 ± 1 ×10^7 M^−1 min^−1. The dissociation constant Kd in test [1] came to 0.26 ± 0.02 nM.
In the case of GEKIPNFI [Cd13], the dissociation constant Kd in test [1] is > 100000 nM.
Still for that read-out and setting: the same measure for `CC(C)[C@H](NC(=O)[C@H](CC(N)=O)NC(=O)[C@@H](N)CCC(=O)O)C(=O)N[C@@H](CCC(N)=O)C(=O)O` [Nd17, ENVQ] (H-ENVQ-OH; N-terminus and C-terminus assumed): > 100000 nM.
As for GEKIPNFIAPELALITKENVQ [k13a], in test [2], the “koff” value is 0.0003 ± 1.7e-05 s⁻¹ and the “kon (M^−1 min^−1 ) (×10^7)” value is on record as 1.7 ± 0.1 ×10^7 M^−1 min^−1. For the same molecule, in test [1], the Kd was determined as 1.1 ± 0.1 nM.
On the same counts, the results for AIANFIPAELKLITKANVQ [Nd2, k3a, e18a] are 0.000533 ± 1.7e-05 s⁻¹, 2.6 ± 0.1 ×10^7 M^−1 min^−1 and 0.88 ± 0.01 nM.
TKENVQ [Nd15]: the Kd in test [1] was > 100000 nM.
GAKIPNFIPAELKLITKENVQ [e2a]: in test [2], the “koff” value stood at 8.83e-05 ± 1.2e-05 s⁻¹ and the “kon (M^−1 min^−1 ) (×10^7)” value is 5.1 ± 0.7 ×10^7 M^−1 min^−1. Besides, the “effect of alanine mutation” value in test [1] is “significantly increased binding affinity”.
In the case of GEKIPN [Cd15], in test [1], the Kd was > 100000 nM.
For `CC[C@H](C)[C@H](NC(=O)[C@H](CC(C)C)NC(=O)[C@H](CCCCN)NC(=O)[C@H](CC(C)C)NC(=O)[C@H](CCC(=O)O)NC(=O)[C@H](C)NC(=O)[C@@H]1CCCN1C(=O)[C@@H](NC(=O)[C@H](Cc1ccccc1)NC(=O)[C@H](CC(N)=O)NC(=O)[C@@H]1CCCN1C(=O)[C@@H](NC(=O)[C@H](CCCCN)NC(=O)[C@H](CCC(=O)O)NC(=O)[C@H](C)N)[C@@H](C)CC)[C@@H](C)CC)C(=O)N[C@H](C(=O)N[C@@H](CCCCN)C(=O)N[C@@H](CCC(=O)O)C(=O)N[C@@H](CC(N)=O)C(=O)N[C@H](C(=O)N[C@@H](CCC(N)=O)C(=O)O)C(C)C)[C@@H](C)O` [g1a], in test [2], the off-rate (koff) amounted to 7.83e-05 ± 5e-06 s⁻¹, the “kf” value is 0.086 ± 0.004 min⁻¹, the “kr” value is 0.037 ± 0.001 min⁻¹ and the “kon (M^−1 min^−1 ) (×10^7)” value is 1.6 ± 0.1 ×10^7 M^−1 min^−1. Moreover, the Kd in test [1] came to 0.29 ± 0.03 nM.
Regarding ITKENVQ [Nd14], the equilibrium dissociation constant (Kd) in test [1] is > 100000 nM.
For “GEKIPNFIPAELKLITKENVQ [v20a, RPtag(small) with V20 changed to alanine]”, in test [2], the “koff” value was 0.0002 ± 1.7e-05 s⁻¹, the “kf” value was determined as 0.073 ± 0.003 min⁻¹ and the “kon (M^−1 min^−1 ) (×10^7)” value was 6.8 ± 0.5 ×10^7 M^−1 min^−1. For the same molecule, the equilibrium dissociation constant (Kd) in test [1] came out at 0.18 ± 0.03 nM.
As to FIPAELKLITK [Nd6, Cd4, FIPAELKLITK], the “koff” value in test [2] is >0.033 s⁻¹. In addition, the Kd in test [1] is 9.9 ± 1.1 nM.
As for GEKIPNFIPAELKLITKANVQ [e18a], in test [2], the “koff” value amounted to 0.000145 ± 6.7e-06 s⁻¹ and the “kon (M^−1 min^−1 ) (×10^7)” value is listed as 16 ± 0.8 ×10^7 M^−1 min^−1. Moreover, the “effect of alanine mutation” value in test [1] is reported as “significantly increased binding affinity”.
Consider GEKIPNFIPAE [Cd10], for which, in test [1], the Kd was > 100000 nM.
Same read-out and setting: with GEKIPNFIPA [Cd11] the figure was > 100000 nM.
